What was measured:
[1] = target: T1, full length G2019 human LRRK2 (Homo sapiens, UniProt Q5S007, R50H); experiment: Full length G2019 human LRRK2 Inhibition Mass Spectrometry assay; assay type: biochemical; settings: 25 nM LRRK2 enzyme, 25 uM LRRKtide, 2 mM ATP; RapidFire mass spectrometry; read-out: pIC50 in the full length G2019 human LRRK2 Inhibition Mass Spectrometry assay (converted)
T1 construct: made in house; host or cells: HEK293 6E cells transduced with BacMam virus (virus generated in Sf9 cells)
From the text: a. Full Length G2019 Human LRRK2 Inhibition Mass Spectrometry Assay
This assay for Leucine Rich Repeat Kinase 2 (LRRK2) inhibition is based on the direct measurement of the peptide ‘LRRKtide’ (LRRKtide: RLGRDKYKT*LRQIRQ and “*” refers to the site of phosphorylation.) and phosphorylated ‘LRRKtide’ using a high throughput RapidFire mass spectrometry assay. Inhibitors are compounds that reduce the conversion of LRRKtide to phospho-LRRKtide.
Human G2019 LRRK2 Plasmid Preparation
Primers used for PCR cloning: • pHTBV-F:SEQ ID No: 1 • LRRK2 wt-F1:SEQ ID No: 2 • LRRK2 wt-R1: SEQ ID No: 3 • LRRK2 wt-F2: SEQ ID No: 4 • LRRK2 wt-R2: SEQ ID No: 5 • LRRK2 wt-F3:SEQ ID No: 6 • pHTBV-R: SEQ ID No: 7 pHTBV1-N-Flag-hu LRRK2 was generated by PCR amplifying the full length LRRK2 sequence with N terminal Flag tag from pcDNA3.1(+)_Human_LRRK2 (NCBI Reference Sequence: NP_940980.3) with the primers described above, and cloned into pHTBV1mcs3 vector between BamHI and KpnI sites.
The G2019 full length Flag-LRRK2 coding sequence is SEQ ID No: 8.
The translated amino acid sequence for human G2019 full length N terminal flag tagged LRRK2 protein is SEQ ID No: 9.
Protein Expression & Purification a) Expression of Flag Tagged Full Length G2019 Human LRRK2
HEK293 6E cells were incubated in a 37° C. incubator with a humidified atmosphere of 5% CO2 on an orbital shaker rotating at 110 rpm. On the day of transduction, the cell viability was higher than 98% and the cell density was in the range of 1×10^6˜1.5×10^6 cells/ml. HEK293 6E cells were centrifuged at 1,000 rpm for 10 min, and then the cells were resuspended in fresh Freestyle 293 expression medium (Invitrogen: 12338) with 0.1% F-68(Invitrogen: 24040-032) but without antibiotics (G418) at density of 1×10^6 cells/ml. BacMam virus with Flag-hu LRRK2 (genotypically normal) gene was centrifuged at 40,000 g for 2 hours, then resuspended in fresh Freestyle 293 expression medium. The resuspended virus was added into the cells in at MOI of 10. The cells were incubated in a 37° C. incubator with a humidified atmosphere of 5% CO2 in air on an orbital shaker rotating at 110 rpm. Cultures were harvested at approximately 48 hours post-transduction by centrifugation at 4,000 rpm for 20 min and pellets were frozen for purification. […]
b) Purification of Flag Tagged Full Length G2019 Human LRRK2
The suspended cells were lysed by sonication on ice for 30 min (2 secs on/4 sec off, 20% amplitude), and centrifuged at 10,000 rpm for 30 minutes at 4° C. The supernatant was incubated with 1 mL per litre of cell culture of anti-Flag magnetic beads (Sigma-Aldrich: M8823) at 4° C. for 3 hours, then the beads were washed by 5 mL (5 column volume) binding buffer (50 mM Tris pH7.5@ 4 C, 500 mM NaCl, 0.5 mM EDTA, 0.1% TritonX-100, 10% glycerol, freshly add 2 mM DTT) for three times. The Flag tagged LRRK2 proteins were eluted by Elution buffer (50 mM Tris pH7.5@ 4 C, 500 mM NaCl, 0.5 mM EDTA, 0.1% TritonX-100, 10% glycerol, freshly add 2 mM DTT, 250 ug/ml Flag peptide (Sigma-Aldrich:F3290)) at 4° C. for 2 hours. Flag peptide was removed by Zeba Spin Desalting Columns, 7K MWCO (Thermo-Fisher: 89893) and the buffer of eluted LRRK2 proteins was exchanged into Storage Buffer (50 mM Tris pH7.5@4 C, 150 mM NaCl, 0.5 mM EDTA, 0.02% Triton X-100, 2 mM DTT and 50% Glycerol) using Amicon Ultra Centrifugal Filter Units (100 kD) (Merck: UFC910096). Fractions containing LRRK2 proteins were pooled, aliquoted and stored at −80° C. Protein concentration was determined by Bradford protein assay, and protein purity was analyzed by NuPAG Novex 4-12% Bis-Tris Protein Gels (Invitrogen: NP0322BOX).
Assay Protocol • 1) A 10 mM test compound was dissolved in 100% DMSO and serially diluted 1 in 4. 100 nL of this dilution series was then added to a 384 well, v bottom polypropylene plate, excluding columns 6 and 18. 100 nL of DMSO was added to columns 6 and 18 as controls wells. […]

[2] = target: T2, LRRK2 Ser935 phosphorylation in SH-SY5Y cells over-expressing recombinant full length LRRK2 (Homo sapiens, UniProt Q5S007); experiment: Recombinant cellular LRRK2 AlphaScreen assay; assay type: cell-based; settings: human neuroblastoma SH-SY5Y cells, BacMam full length LRRK2, 60 minutes with compound, read-out: pIC50 in the recombinant cellular LRRK2 AlphaScreen assay (converted)
T2 construct: A BacMam virus expressing full length recombinant LRRK2 was purchased from Invitrogen; host or cells: SH-SY5Y human neuroblastoma cells transduced with BacMam LRRK2 virus
Procedure, shortened: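 SH-SY5Y cells transduced with BacMam full-length human LRRK2 (MOI 50) for 24 h, then treated with compound (top final 10 μM) for 60 min at 37° C. Lysate pSer935 LRRK2 quantified by AlphaScreen using anti-pS935 and total-LRRK2 antibodies. Values from sigmoidal dose-response fit.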

T1 sequence (Q5S007 with tags, fused parts or gaps R50H): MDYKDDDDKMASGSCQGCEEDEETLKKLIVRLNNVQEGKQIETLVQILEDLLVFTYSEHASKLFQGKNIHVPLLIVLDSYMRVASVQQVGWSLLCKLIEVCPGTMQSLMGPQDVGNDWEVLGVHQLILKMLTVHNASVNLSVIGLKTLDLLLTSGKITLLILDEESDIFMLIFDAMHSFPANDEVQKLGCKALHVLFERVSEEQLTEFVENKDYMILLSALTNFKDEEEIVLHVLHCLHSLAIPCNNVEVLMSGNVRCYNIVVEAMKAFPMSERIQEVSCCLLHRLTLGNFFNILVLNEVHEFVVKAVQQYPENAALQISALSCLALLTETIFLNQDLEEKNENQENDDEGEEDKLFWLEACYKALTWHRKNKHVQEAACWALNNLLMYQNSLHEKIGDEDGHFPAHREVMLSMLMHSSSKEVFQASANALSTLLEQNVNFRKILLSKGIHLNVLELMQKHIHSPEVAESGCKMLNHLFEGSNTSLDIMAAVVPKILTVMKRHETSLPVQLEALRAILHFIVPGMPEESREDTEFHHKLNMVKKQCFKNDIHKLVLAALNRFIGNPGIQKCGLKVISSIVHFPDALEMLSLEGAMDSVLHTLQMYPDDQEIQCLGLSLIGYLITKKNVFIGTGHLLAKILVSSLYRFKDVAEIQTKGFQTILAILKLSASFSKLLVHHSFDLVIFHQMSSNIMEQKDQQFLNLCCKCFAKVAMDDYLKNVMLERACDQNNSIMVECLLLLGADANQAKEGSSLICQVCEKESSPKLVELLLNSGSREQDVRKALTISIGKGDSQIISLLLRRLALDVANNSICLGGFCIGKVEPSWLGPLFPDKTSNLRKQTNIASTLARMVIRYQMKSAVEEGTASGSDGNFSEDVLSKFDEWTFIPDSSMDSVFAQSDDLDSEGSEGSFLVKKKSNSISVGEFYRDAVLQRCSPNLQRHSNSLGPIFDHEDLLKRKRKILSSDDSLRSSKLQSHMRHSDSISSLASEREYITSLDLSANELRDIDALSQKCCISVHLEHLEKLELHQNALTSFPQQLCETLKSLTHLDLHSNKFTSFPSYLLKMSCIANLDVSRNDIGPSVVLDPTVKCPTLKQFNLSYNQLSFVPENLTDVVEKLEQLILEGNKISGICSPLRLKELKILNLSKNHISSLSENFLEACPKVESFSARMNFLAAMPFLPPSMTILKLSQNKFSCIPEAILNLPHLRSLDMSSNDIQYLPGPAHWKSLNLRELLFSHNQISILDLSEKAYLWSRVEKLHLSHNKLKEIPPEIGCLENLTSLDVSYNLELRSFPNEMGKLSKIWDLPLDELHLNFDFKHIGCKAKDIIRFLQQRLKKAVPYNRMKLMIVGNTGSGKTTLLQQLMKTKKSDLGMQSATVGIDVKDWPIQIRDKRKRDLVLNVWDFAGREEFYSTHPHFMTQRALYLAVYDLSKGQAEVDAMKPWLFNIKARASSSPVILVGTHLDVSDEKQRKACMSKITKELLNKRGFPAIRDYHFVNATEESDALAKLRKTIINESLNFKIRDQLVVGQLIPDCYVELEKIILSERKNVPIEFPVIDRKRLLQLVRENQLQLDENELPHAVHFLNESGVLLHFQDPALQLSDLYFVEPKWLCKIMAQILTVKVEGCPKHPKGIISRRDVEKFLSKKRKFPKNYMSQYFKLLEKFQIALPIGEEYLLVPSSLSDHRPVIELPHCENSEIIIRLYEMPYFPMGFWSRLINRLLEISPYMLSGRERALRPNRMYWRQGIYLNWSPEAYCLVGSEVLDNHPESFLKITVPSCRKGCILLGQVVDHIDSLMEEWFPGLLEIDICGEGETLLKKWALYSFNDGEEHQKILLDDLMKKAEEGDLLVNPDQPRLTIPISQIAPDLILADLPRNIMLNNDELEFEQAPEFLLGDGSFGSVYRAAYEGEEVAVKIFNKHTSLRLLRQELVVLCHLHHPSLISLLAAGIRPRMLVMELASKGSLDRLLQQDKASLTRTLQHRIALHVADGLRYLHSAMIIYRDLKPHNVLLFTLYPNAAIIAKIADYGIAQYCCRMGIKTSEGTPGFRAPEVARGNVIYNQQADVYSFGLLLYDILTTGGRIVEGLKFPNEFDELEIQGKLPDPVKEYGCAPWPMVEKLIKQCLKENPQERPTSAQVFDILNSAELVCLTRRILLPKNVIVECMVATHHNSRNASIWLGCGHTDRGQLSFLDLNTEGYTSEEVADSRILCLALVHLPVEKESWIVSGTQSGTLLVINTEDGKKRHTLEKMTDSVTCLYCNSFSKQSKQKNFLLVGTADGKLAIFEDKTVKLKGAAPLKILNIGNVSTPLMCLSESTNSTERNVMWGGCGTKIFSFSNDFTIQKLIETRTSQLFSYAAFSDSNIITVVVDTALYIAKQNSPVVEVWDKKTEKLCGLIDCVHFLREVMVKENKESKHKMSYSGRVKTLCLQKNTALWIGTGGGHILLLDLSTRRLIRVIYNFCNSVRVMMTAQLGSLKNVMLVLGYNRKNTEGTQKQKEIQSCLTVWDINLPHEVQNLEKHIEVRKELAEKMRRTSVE
T2 sequence (Q5S007 whole entry): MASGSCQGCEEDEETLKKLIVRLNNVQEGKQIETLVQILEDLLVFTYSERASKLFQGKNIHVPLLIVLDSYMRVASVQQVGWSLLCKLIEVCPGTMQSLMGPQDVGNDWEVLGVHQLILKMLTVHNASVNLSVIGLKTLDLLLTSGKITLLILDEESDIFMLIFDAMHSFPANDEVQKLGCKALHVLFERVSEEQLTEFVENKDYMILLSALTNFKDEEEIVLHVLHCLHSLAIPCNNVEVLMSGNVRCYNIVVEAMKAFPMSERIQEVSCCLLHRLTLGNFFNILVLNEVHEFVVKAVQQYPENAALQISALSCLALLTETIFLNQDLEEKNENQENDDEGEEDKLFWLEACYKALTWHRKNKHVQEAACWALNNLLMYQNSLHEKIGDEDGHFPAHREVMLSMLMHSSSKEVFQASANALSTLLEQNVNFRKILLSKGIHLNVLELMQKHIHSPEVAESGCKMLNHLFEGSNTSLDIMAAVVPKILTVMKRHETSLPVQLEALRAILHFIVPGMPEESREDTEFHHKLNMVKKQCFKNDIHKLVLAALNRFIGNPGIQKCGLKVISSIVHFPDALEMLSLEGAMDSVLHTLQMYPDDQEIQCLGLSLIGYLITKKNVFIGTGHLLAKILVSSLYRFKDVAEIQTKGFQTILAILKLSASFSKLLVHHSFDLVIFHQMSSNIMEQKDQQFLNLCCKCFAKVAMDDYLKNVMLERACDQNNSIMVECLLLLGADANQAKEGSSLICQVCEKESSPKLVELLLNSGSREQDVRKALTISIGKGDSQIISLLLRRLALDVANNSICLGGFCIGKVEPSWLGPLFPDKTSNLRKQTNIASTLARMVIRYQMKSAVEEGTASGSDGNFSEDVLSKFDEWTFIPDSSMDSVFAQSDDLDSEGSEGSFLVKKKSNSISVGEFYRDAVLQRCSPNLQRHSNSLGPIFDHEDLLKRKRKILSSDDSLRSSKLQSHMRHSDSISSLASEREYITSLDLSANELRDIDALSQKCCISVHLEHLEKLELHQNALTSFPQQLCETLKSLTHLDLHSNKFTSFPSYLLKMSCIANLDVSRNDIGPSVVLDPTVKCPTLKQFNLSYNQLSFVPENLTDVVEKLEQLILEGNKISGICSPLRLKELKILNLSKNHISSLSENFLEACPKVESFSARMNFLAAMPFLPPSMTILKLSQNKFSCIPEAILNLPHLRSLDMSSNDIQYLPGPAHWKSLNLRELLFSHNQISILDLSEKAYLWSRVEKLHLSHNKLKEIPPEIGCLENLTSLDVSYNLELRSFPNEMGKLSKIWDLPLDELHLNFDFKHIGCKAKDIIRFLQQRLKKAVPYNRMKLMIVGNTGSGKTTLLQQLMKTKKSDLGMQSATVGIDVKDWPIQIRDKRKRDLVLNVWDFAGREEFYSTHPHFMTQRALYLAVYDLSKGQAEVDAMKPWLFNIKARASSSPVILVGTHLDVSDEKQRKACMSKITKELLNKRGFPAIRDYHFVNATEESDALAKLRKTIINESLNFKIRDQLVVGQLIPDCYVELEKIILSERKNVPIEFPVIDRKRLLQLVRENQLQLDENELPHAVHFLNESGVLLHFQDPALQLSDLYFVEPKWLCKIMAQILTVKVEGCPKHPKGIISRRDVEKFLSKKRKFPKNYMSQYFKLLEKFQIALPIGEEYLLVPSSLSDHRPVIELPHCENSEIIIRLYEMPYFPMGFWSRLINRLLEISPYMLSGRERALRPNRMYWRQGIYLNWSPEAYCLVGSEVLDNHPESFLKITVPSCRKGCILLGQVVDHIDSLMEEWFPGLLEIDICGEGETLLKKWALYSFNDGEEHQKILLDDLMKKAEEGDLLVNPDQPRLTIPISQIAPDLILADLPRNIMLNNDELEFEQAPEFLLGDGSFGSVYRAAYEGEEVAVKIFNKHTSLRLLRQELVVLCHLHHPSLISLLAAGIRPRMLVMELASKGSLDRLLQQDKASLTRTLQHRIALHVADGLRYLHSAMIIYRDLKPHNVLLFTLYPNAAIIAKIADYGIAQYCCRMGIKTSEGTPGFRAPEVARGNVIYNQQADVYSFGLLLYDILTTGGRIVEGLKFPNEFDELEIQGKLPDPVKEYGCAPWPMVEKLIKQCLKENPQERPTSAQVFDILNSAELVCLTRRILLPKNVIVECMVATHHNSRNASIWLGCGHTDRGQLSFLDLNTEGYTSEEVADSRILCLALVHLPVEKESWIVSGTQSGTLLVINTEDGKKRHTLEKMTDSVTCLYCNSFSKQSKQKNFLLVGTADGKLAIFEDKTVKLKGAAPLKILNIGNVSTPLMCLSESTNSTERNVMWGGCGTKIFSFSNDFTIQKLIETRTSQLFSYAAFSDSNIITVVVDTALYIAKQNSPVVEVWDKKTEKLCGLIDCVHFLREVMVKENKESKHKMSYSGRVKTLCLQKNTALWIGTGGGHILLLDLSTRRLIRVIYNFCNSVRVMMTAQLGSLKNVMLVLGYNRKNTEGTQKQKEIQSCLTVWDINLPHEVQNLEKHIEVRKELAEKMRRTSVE

SMILES	IC50 [1]	IC50 [2]
COc1nc(N2CC3CC2CO3)cc(-n2ncc3cc(C)c(C4CCN(C5COC5)CC4O)cc32)n1 (single isomer, unassigned) [Example E133]	≤ 100 nM	–
Cc1nc(N2C[C@H]3C[C@@H]2CO3)cc(-n2ncc3cc(C)c(C4CCN(C5CCOC5)CC4F)cc32)n1 (single isomer, unassigned) [Example E148]	≤ 100 nM	–
Cc1nc(N2C[C@@H]3C[C@H]2CO3)cc(-n2ncc3cc(C)c(C4CCN(C5CCOC5)CC4F)cc32)n1 (single isomer, unassigned) [Example E150]	≤ 100 nM	–
Cc1nc(N2CC3(CO)CC2CO3)cc(-n2ncc3cc(C)c(C4CCN(C5CCOC5)CC4)cc32)n1 (single isomer, unassigned) [Example E152, (5-(2-methyl-6-(5-methyl-6-(1-(tetrahydrofuran-3-yl)piperidin-4-yl)-1H-indazol-1-yl)pyrimidin-4-yl)-2-oxa-5-azabicyclo[2.2.1]heptan-1-yl)methanol]	≤ 100 nM	–
Cc1nc(N2C[C@H]3C[C@@H]2CO3)cc(-n2ncc3cc(C)c(C4CCN(CCC(=O)O)CC4F)cc32)n1 (single isomer, unassigned) [Example E154]	≤ 100 nM	–
Cc1nc(N2C[C@@H]3C[C@H]2CO3)cc(-n2ncc3cc(C)c(C4CCN(CCC(=O)O)CC4F)cc32)n1 (single isomer, unassigned) [Example E156]	≤ 100 nM	–
Cc1nc(N2C[C@H]3C[C@@H]2CO3)cc(-n2ncc3cc(C)c(C4CCN(C5COCC5O)CC4)cc32)n1 (single isomer, unassigned) [Example E171]	≤ 100 nM	–
COc1nc(N2CC3CCC(C2)O3)cc(-n2ncc3cc(C)c(C4CCNCC4)cc32)n1 [Example E62, 3-(2-methoxy-6-(5-methyl-6-(piperidin-4-yl)-1H-indazol-1-yl)pyrimidin-4-yl)-8-oxa-3-azabicyclo[3.2.1]octane 2,2,2-trifluoroacetate]	–	≤ 1000 nM
Cc1nc(N2CC3CCC(C2)O3)cc(-n2ncc3cc(C)c(C4CCNCC4)cc32)n1 [Example E63, 3-(2-methyl-6-(5-methyl-6-(piperidin-4-yl)-1H-indazol-1-yl)pyrimidin-4-yl)-8-oxa-3-azabicyclo[3.2.1]octane 2,2,2-trifluoroacetate]	–	≤ 1000 nM
[2H]C([2H])([2H])Oc1nc(N2C[C@H]3C[C@@H]2CO3)cc(-n2ncc3cc(C)c(C4CCN(C5COC5)CC4)cc32)n1 [Example E72, (1R,4R)-5-(6-(5-methyl-6-(1-(oxetan-3-yl)piperidin-4-yl)-1H-indazol-1-yl)-2-(trideuteriummethoxy)pyrimidin-4-yl)-2-oxa-5-azabicyclo[2.2.1]heptane]	–	≤ 10 nM
[2H]C([2H])([2H])Oc1nc(N2C[C@@H]3C[C@H]2CO3)cc(-n2ncc3cc(C)c(C4CCN(C5COC5)CC4)cc32)n1 [Example E73, (1S,4S)-5-(6-(5-methyl-6-(1-(oxetan-3-yl)piperidin-4-yl)-1H-indazol-1-yl)-2-(trideuteriummethoxy)pyrimidin-4-yl)-2-oxa-5-azabicyclo[2.2.1]heptane]	–	≤ 1000 nM
Cc1nc(N2CC3CC(C2)C3C(=O)O)cc(-n2ncc3cc(C)c(C4CCOCC4)cc32)n1 (stereo not shown) [Example E80, 3-{2-Methyl-6-[5-methyl-6-(tetrahydro-pyran-4-yl)-indazol-1-yl]-pyrimidin-4-yl}-3-aza-bicyclo[3.1.1]heptane-6-carboxylic Acid]	–	≤ 1000 nM
COc1nc(N2CC3CC(C2)C3C(=O)O)cc(-n2ncc3cc(C)c(OC(C)C)cc32)n1 (stereo not shown) [Example E81, 3-(6-(6-isopropoxy-5-methyl-1H-indazol-1-yl)-2-methoxypyrimidin-4-yl)-3-azabicyclo[3.1.1]heptane-6-carboxylic Acid]	–	≤ 10 nM
Cc1nc(N2C[C@@]3(CO)C[C@@H]2CO3)cc(-n2ncc3cc(C)c(C4CCN([C@H]5CCOC5)CC4)cc32)n1 [Example E142, ((1R,4R)-5-(2-methyl-6-(5-methyl-6-(1-((S)-tetrahydrofuran-3-yl)piperidin-4-yl)-1H-indazol-1-yl)pyrimidin-4-yl)-2-oxa-5-azabicyclo[2.2.1]heptan-1-yl)methanol]	≤ 100 nM	–
COC(=O)CCN1CCC(c2cc3c(cnn3-c3cc(N4C[C@@H]5C[C@H]4CO5)nc(C)n3)cc2C)CC1 [Example E163, Methyl 3-(4-(1-(6-((1S,4S)-2-oxa-5-azabicyclo[2.2.1]heptan-5-yl)-2-methylpyrimidin-4-yl)-5-methyl-1H-indazol-6-yl)piperidin-1-yl)propanoate]	≤ 100 nM	–
COc1nc(N2C[C@@H]3C[C@H]2CO3)cc(-n2ncc3cc(C)c(C4CCN(CCC(=O)O)CC4)cc32)n1 [Example E165, 3-(4-(1-(6-((1S,4S)-2-oxa-5-azabicyclo[2.2.1]heptan-5-yl)-2-methoxypyrimidin-4-yl)-5-methyl-1H-indazol-6-yl)piperidin-1-yl)propanoic Acid]	–	≤ 1000 nM
Cc1nc(N2CC3(CO)CC2CO3)cc(-n2ncc3cc(C)c(C4CCN(C5COC5)CC4)cc32)n1 (stereo not shown) [Example E166, (5-(2-methyl-6-(5-methyl-6-(1-(oxetan-3-yl)piperidin-4-yl)-1H-indazol-1-yl)pyrimid-in-4-yl)-2-oxa-5-azabicyclo[2.2.1]heptan-1-yl)methanol]	≤ 100 nM	–
Cc1nc(N2C[C@H]3C[C@@H]2CO3)cc(-n2ncc3cc(C)c(C4C5CN(C6CCOC6)CC54)cc32)n1 (stereo partly drawn) [Example E179, (1R,4R)-5-(2-methyl-6-(5-methyl-6-(3-((S)-tetrahydrofuran-3-yl)-3-azabicyclo-[3.1.0]hexan-6-yl)-1H-indazol-1-yl)pyrimidin-4-yl)-2-oxa-5-azabicyclo[2.2.1]heptane]	–	≤ 1000 nM
Cc1nc(N2C[C@H]3C[C@@H]2CO3)cc(-n2ncc3cc(C)c(C4C5CN(CCS(C)(=O)=O)CC54)cc32)n1 (stereo partly drawn) [Example E180, (1R,4R)-5-(2-methyl-6-(5-methyl-6-(3-(2-(methylsulfonyl)ethyl)-3-azabicyclo[3.1.0]hexan-6-yl)-1H-indazol-1-yl)pyrimidin-4-yl)-2-oxa-5-azabicyclo[2.2.1]heptane]	–	≤ 1000 nM
